Data on 40 compounds can be found in publication PMC4360375 (Journal of Medicinal Chemistry, 2015).

One data set has as its target T1, rGAT1 (Rattus norvegicus, UniProt P23978).
T1 construct: Y prefix of 'YrGAT-1' (own knowledge: yellow fluorescent protein, YFP, fused to rGAT1 in this group's constructs); expressed in transfected cells; host or cells: HEK293
Put plainly: [3H]-GABA uptake inhibition assay in HEK293 cells stably expressing rGAT1. It counts as cell-based. The conditions noted are these: 100 μM compound.
Regarding `N[C@@H](Cc1cc(I)c(Oc2cc(I)c(O)c(I)c2)c(I)c1)C(=O)O` [27b, levothyroxine], the “effect on [3H]-GABA uptake, in words” value is “reduced uptake, albeit weaker than 27a”. On the same count and under the same terms, with `O=C(CCN1CCCC1C(=O)O)Nc1ccccc1Oc1ccccc1` (stereo not shown) [compound 18] the entry was “some weak activity”. Same read-out and setting: with bepotastine [compound 25] the entry was “inactive”; with ramipril [compound 26], “inactive”.

The same data set, now with this note: 100 μM compound; listed as bepotastine.
Turning to bepotastine [compound 25], the “effect on [3H]-GABA uptake, in words” value is “essentially inactive”.

Staying with this data set, now noted: 100 μM of the respective compound; n = 3; relative to saline.
As to bepotastine [compound 25], the “% uptake (remaining uptake of [3H]-GABA)” value is recorded as 103.8%. Same read-out and setting: for ramipril [compound 26] the value was 107.7%.

The data set is the same for the next values; noted with them: HEK293, 100 μM of the respective compound; n = 3; relative to saline.
The term remaining activity denotes the signal under treatment as a percentage of the control signal. As to `N[C@@H](Cc1cc(I)c(Oc2cc(I)c(O)c(I)c2)c(I)c1)C(=O)O` [27b, levothyroxine], the remaining activity at 100 µM is 54.2%. On the same count and under the same terms, with `N[C@H](Cc1cc(I)c(Oc2cc(I)c(O)c(I)c2)c(I)c1)C(=O)O` [27c, dextrothyroxine] the figure was 127%; with `CCN(CCC(=O)O)Cc1nc2c(C)cccc2c(=O)[nH]1` [compound 12], 105%; with `CC(C(=O)Nc1ccc(Br)cc1Br)N1CCCC(CC(=O)O)C1` (stereo not shown) [compound 13], 93.2%. On the same count and under the same terms, with `O=C(O)CN1CCC(CCc2ccccc2C(F)(F)F)CC1` [compound 14] the figure was 99%. Still for that read-out and setting: with `CC(C(=O)O)N1CCCN(C(=O)c2ccccc2C(F)(F)F)CC1` (stereo not shown) [compound 15] the figure was 104%; with `O=C(O)CN1CCCC1Cc1ccccc1Cl` (stereo not shown) [compound 16], 95.1%; with `O=C(CCN1CCCC1C(=O)O)Nc1ccccc1Oc1ccccc1` (stereo not shown) [compound 18], 79.3%. For `Fc1cc(Br)cc(CN2CCCC(c3nnn[nH]3)C2)c1` (stereo not shown) [compound 19], the remaining activity at 100 µM was 91%. Turning to `Cc1nn(Cc2ccccc2Cl)c(C)c1CN(C)C(C)C(=O)O` (stereo not shown) [compound 20], the remaining activity at 100 µM came to 93.9%. On the same count and under the same terms, with `O=C(CN1CCC[C@H]1C(=O)O)NC(c1ccc(F)cc1)c1cccs1` (stereo partly shown) [compound 21] the figure was 94.7%.

In the case of `Cc1cc(S(=O)(=O)N2CCN(CCC(=O)O)CC2)ccc1Br` [compound 22], the remaining activity at 100 µM is 104%. As to `NC(CSCc1cccc2ccccc12)C(=O)O` (stereo not shown) [compound 23], the remaining activity at 100 µM turned out to be 108%. Turning to `CCC(CC)OC1C=C(C(=O)O)CC(N)C1NC(C)=O` (stereo not shown) [compound 24], the remaining activity at 100 µM was 105%.

Test system in another data set: not given
Assay: not given
Details: method as in PMID 10903390. The conditions noted are these: cited from earlier work.
Take `O=C(O)C1CCCNC1` (stereo not shown) [compound 2, nipecotic acid]: the blood-brain barrier penetration entry is on record as “unable to penetrate the blood–brain barrier”. For `O=C(O)C1=CCCNC1` [compound 3, guvacine], the blood-brain barrier penetration result is listed as “unable to penetrate the blood–brain barrier”.

The test system of the next data set is other neurotransmitter reuptake systems (dopamine, serotonin, choline, aspartate).
Assay: not given
Details: method as in PMID 3509068. The conditions noted are these: cited from earlier work.
Consider liothyronine [27a], for which the “activity on other neurotransmitter reuptake systems” value is recorded as “without major activity”.

The next data set deals with GABA uptake, rat synaptosome.
Assay: not given
The conditions noted are these: Figure 2; rat synaptosome GABA uptake; read-out: literature IC50; cited from earlier work.
As usually defined, the IC50 is the concentration at which inhibition is half-maximal. In the case of `O=C(O)[C@@H]1CCCN(CCCCCC(c2ccccc2)c2ccccc2)C1` [compound 9, OC(=O)[C@@H]1CCCN(C1)CCCCCC(c1ccccc1)c1ccccc1], the IC50 was 1590 nM.

Still in this data set, the particulars now being: literature data set; ref 10.1016/S0968-0896(01)00148-1; cited from earlier work.
The pIC50 is the negative decadic logarithm of the IC50, by convention in mol/L. As to `O=C(O)[C@@H]1CCCN(CCOc2ccccc2Cc2ccccc2)C1` [An_2001/6_34, O(CCN1C[C@@H](CCC1)C(O)=O)c1ccccc1Cc1ccccc1], the pIC50 is listed as 5.158.

Take `O=C(O)[C@@H]1CCCN(CCOCc2ccccc2-c2ccccc2)C1` [An_2001/6_35, O(Cc1ccccc1-c1ccccc1)CCN1C[C@@H](CCC1)C(O)=O]: the negative-log IC50 (pIC50) is recorded as 6.476. For `O=C(O)[C@@H]1CCCN(CCOCc2ccc3ccccc3c2-c2ccccc2)C1` [An_2001/6_36, O(Cc1ccc2c(cccc2)c1-c1ccccc1)CCN1C[C@@H](CCC1)C(O)=O], the pIC50 is 5.098. In the case of `O=C(O)[C@@H]1CCCN(CCOCc2ccccc2Cc2ccccc2)C1` [An_2001/6_37, O(Cc1ccccc1Cc1ccccc1)CCN1C[C@@H](CCC1)C(O)=O], the pIC50 is reported as 6.495. For the compound `O=C(O)[C@@H]1CCCN(CCOCc2cccc(Cc3ccccc3)c2)C1` [An_2001/6_38, O(Cc1cc(ccc1)Cc1ccccc1)CCN1C[C@@H](CCC1)C(O)=O], the pIC50 is 5.523.

Take `O=C(O)[C@@H]1CCCN(CCOCCc2ccccc2-c2ccccc2)C1` [An_2001/6_39, O(CCc1ccccc1-c1ccccc1)CCN1C[C@@H](CCC1)C(O)=O]: the pIC50 was 6.959. On to `O=C(O)[C@@H]1CCCN(CCOCCc2ccccc2Cc2ccccc2)C1` [An_2001/6_40, O(CCc1ccccc1Cc1ccccc1)CCN1C[C@@H](CCC1)C(O)=O], for which the pIC50 is 7. As for `O=C(O)[C@@H]1CCCN(CCOC/C(=C/c2ccccc2)c2ccccc2)C1` [An_2001/6_41, O(CCN1C[C@@H](CCC1)C(O)=O)C\C(=C\c1ccccc1)\c1ccccc1], the pIC50 is listed as 6.297. As to `O=C(O)[C@@H]1CCCN(CCOC/C(=C\c2ccccc2)c2ccccc2)C1` [An_2001/6_42, O(CCN1C[C@@H](CCC1)C(O)=O)C\C(=C/c1ccccc1)\c1ccccc1], the pIC50 is 5.523.

Take `O=C(O)[C@@H]1CCCN(CCOCCc2ccccc2)C1` [An_2001/6_43, O(CCc1ccccc1)CCN1C[C@@H](CCC1)C(O)=O]: the pIC50 is reported as 5.347. As for `CC(C)CN(CCOCCN1CCC[C@@H](C(=O)O)C1)c1ccccc1` [An_2001/6_44, O(CCN1C[C@@H](CCC1)C(O)=O)CCN(CC(C)C)c1ccccc1], the pIC50 is given as 6.553. `CC(C)CN(CCOCCN1CCC[C@@H](C(=O)O)C1)c1ccc(F)cc1Cl` [An_2001/6_45, Clc1cc(F)ccc1N(CC(C)C)CCOCCN1C[C@@H](CCC1)C(O)=O]: the pIC50 is reported as 6.827.

Still in this data set, the particulars now being: literature data set; ref 10.1021/jm00064a005; cited from earlier work.
For the compound `O=C(O)C1=CCCN(CCOC(c2ccc(C(F)(F)F)cc2)c2ccc(C(F)(F)F)cc2)C1` [Cl-966, FC(F)(F)c1ccc(cc1)C(OCCN1CC(=CCC1)C(O)=O)c1ccc(cc1)C(F)(F)F], the pIC50 is reported as 6.357. As for `O=C(O)C1=CCCN(CCC=C(c2ccccc2)c2ccccc2)C1` [SK&F-100330-A, OC(=O)C=1CN(CCC=1)CC\C=C(\c1ccccc1)/c1ccccc1], the pIC50 is given as 6.699.

As to `Cc1ccsc1C(=CCCN1CCC[C@@H](C(=O)O)C1)c1sccc1C` [compound 5, tiagabine], the pIC50 is reported as 7.174. In the case of `O=C(O)[C@@H]1CCCN(CCC=C2c3ccccc3-c3ccccc32)C1` [compound 7, OC(=O)[C@@H]1CCCN(C1)CC\C=C/1\c2c(-c3c\1cccc3)cccc2], the pIC50 is reported as 5.717.

The same data set, now with this note: literature data set; ref 10.1021/jm980492e; cited from earlier work.
In the case of `O=C(O)[C@@H]1CCCN(CCOCCC(c2ccccc2)c2ccccc2)C1` [compound 8, O(CCC(c1ccccc1)c1ccccc1)CCN1C[C@@H](CCC1)C(O)=O], the pIC50 is recorded as 7.26. As to `O=C(O)[C@@H]1CCCN(CCCCCC(c2ccccc2)c2ccccc2)C1` [compound 9, OC(=O)[C@@H]1CCCN(C1)CCCCCC(c1ccccc1)c1ccccc1], the pIC50 is 5.799.

The same data set, now with this note: literature data set; ref 10.1021/jm981027k; cited from earlier work.
As to `O=C(O)C1=CCCN(CCON=C(c2ccccc2)c2ccccc2)C1` [NO-711, O(\N=C(\c1ccccc1)/c1ccccc1)CCN1CC(=CCC1)C(O)=O], the pIC50 is 7.328. For `Cc1ccsc1C(=COCCN1CCC[C@@H](C(=O)O)C1)c1sccc1C` [compound 6, s1ccc(C)c1\C(=C\OCCN1C[C@@H](CCC1)C(O)=O)\c1sccc1C], the pIC50 is recorded as 7.854.

Take `O=C(O)[C@@H]1CCCN(CCO/N=C(/c2ccccc2)c2ccccn2)C1` [compound 11, O(\N=C(\c1ccccc1)/c1ncccc1)CCN1C[C@@H](CCC1)C(O)=O]: the pIC50 is recorded as 5.684.
